Here are results for nine compounds from patent US20140301947A1, “METHODS TO PREDICT BINDING AFFINITY OF TSPO IMAGING AGENTS TO TSPO” (IMPERIAL INNOVATIONS LIMITED, priority 2011, published 2014).

Broadly, the IC50 is the midpoint of a concentration-inhibition curve. Higher therefore signals lower potency.

“And” between values parts separate entries of the source, which are not always exact repeats. Equal entries are not always repeated. Where two headings read alike, the source gives them in different places.

The target in assay [1] is T1, TSPO (Homo sapiens, UniProt P30536). The assay is described as follows: Competition binding with [3H]PK11195 in human brain (method of J Nucl Med 2011;52:24-32). More on the design: Ki MAB; Vinpocetine Ki, MAB. The settings on record: mixed affinity binders, single value, human brain; read-out: Ki MAB. From the text:
(§1) Thus, for example, the binding affinity of the compound may be determined in tissue derived from a HAB and in tissue derived from a LAB. An appropriate method may comprise the following steps: • obtain samples from human volunteers of tissue which contains TSPO (for example brain (for example for archive samples) or platelets (for example from blood)).
(§2) In more detail, as an example, a 48 well plate may be used, for example with 8-12 different concentrations of experimental drug for each experiment (be it the radiolabelled drug for saturation studies or the un-radiolabelled drug for competition studies). Concentrations may range from around 0.1 nM, increasing in roughly half logs (ie 0.1 nM, 0.3 nM, 1 nM, 3 nM etc) up to around 10,000 nM. 3-4 wells may be used for each concentration and the average taken to increase the precision around the estimate for each data point. The amount of tissue material required depends on how much TSPO is in the chosen tissue. For brain ˜100 micrograms of protein in each well (500 microlitres) may typically be used, giving a protein concentration of ˜200 micrograms/ml. Similar amounts may be used for platelets. For a tissue with very high TSPO levels (eg adrenal gland) a lot less protein would be needed.

The test system of assay [2] is TSPO. The description is as above. The following applies: for ratio of specific signal, LAB: LAB set to 1; for LAB/HAB: ratio of Ki LAB to Ki HAB; for ratio of specific signal, HAB / ratio of specific signal, MAB: relative to LAB = 1.
Description: as §1, §2

Assay [3] deals with T2, TSPO (Homo sapiens, UniProt P30536, T147A). Described as above. More on the design: from tissue; host or cells: human brain (membrane preparation, by the cited method). The settings on record: human brain.
T2 sequence (P30536 2-169 T147A): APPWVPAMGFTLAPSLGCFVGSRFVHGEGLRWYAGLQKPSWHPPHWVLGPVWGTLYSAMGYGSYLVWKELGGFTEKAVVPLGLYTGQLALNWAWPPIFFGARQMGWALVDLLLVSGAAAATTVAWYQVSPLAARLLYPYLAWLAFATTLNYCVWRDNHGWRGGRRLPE
Description: as §1, §2

In assay [4] the target is T1, TSPO. The assay is described as above. Also on record: from tissue; host or cells: human brain (membrane preparation, by the cited method).
Description: as §1, §2
Target sequence in this assay (P30536 2-169): as the sequence (P30536 2-169 T147A) above, with A146T counted along it

For assay [5], the system named is TSPO. The assay is described as follows: Autoradiography with [18F]FEPPA on slides previously characterised with [3H]PBR28. Format: binding. The settings on record: LAB slide versus HAB and MAB slides. From the text:
FIG. 4: Autoradiograhpy (above) with [^18F]FEPPA (structure below). The sample slides in the figure have been previously characterised with [^3H]PBR28 and are all from HABs and MABs, but for the slide second from the left which is a LAB.

The subject of assay [6] is TSPO. The assay is described as follows: Competition radioligand binding assay with [3H]PK11195 and unlabelled GE1 in HABs and LABs. Also on record: species or system human. The settings on record: LAB mean Ki / HAB mean Ki. The protocol: (§3) FIG. 6: Competition radioligand binding assay with [3H]
(§4) Binding assays were performed as for the other compounds, as described above. The compound concentrations used were 10000 nM, 3000 nM. 1000 nM, 300 nM, 100 nM. 30 nM, 10 nM, 3 nM, 1 nM, 0.3 nM and 0.03 nM. 6 HABS and 6 LABs were used.

Assay [7] addresses T2, TSPO. Described as above. More on the design: from tissue; host or cells: human brain (membrane preparation, by the cited method). How it is done: as §3, §4
The target of assay [8] is T1, TSPO. The assay is described as above. More on the design: from tissue; host or cells: human brain (membrane preparation, by the cited method). The protocol: as §3, §4
Target sequence in this assay (P30536 2-169): as the sequence (P30536 2-169 T147A) above, with A146T counted along it
For assay [9], the target named is T2, TSPO. The assay is described as follows: Competition binding assay, unlabelled PBR28 displacing [3H]PK11195 in human platelet membranes. More on the design: from tissue. The following applies: platelets, mean±SEM. The protocol:
(§5) The study protocol, volunteer information and informed consent forms were approved by the local Research Ethics Committee. Forty-one healthy volunteers (29 male, 12 female, mean age 36.3±1.4 years) were recruited. […] Venous blood (50 ml) was drawn into EDTA-containing tubes, and separated into a lymphocyte-rich bottom layer (for genetic analysis) and platelet-rich top layer by centrifugation (180×g, 15 min, 4° C.). The platelet-rich layer (for binding assays) was re-centrifuged (1800×g, 15 min, 4° C.) to produce a platelet-containing pellet. Platelet membranes were prepared as previously described (5).
(§6) Binding data were analysed using GraphPad Prism 5.0. Single site and two site competition models were fitted using the least squares algorithm and model selection was compared using an F-test. The null hypothesis, that the data fitted a single site model, was rejected if the p value was less than 0.05. […] MABs were defined as subjects with two binding sites. Data are expressed as the mean±standard error of the mean (SEM).

Assay [10] has as its target T1, TSPO. The assay is described as above. More on the design: from tissue. The following applies: platelets, mean±SEM. The protocol: as §5, §6
Target sequence in this assay (P30536 2-169): as the sequence (P30536 2-169 T147A) above, with A146T counted along it
In assay [11] the target is T2, TSPO. Also on record: from tissue; host or cells: human brain (membrane preparation, by the cited method). The settings on record: background, reference (5); read-out: Ki values for HABs; cited from earlier work.
The target of assay [12] is T1, TSPO. More on the design: from tissue; host or cells: human brain (membrane preparation, by the cited method). The following applies: background, reference (5); read-out: Ki values for LABs; cited from earlier work.
Target sequence in this assay (P30536 2-169): as the sequence (P30536 2-169 T147A) above, with A146T counted along it
[13] abbreviates: high affinity binders, nM, read-out: Ki HAB.
Where [14] appears, read: low affinity binders, human brain, read-out: Ki LAB.
The mark [15] stands for this setting: grouping of ligands into 3 distinct affinities, read-out: affinity for the "Low Affinity receptor".
Setting [16] is: mixed affinity binders, two values given, read-out: Ki MAB, first (high affinity) value.
Where [17] appears, read: mixed affinity binders, two values given, human brain, read-out: Ki MAB, second (low affinity) value.

`COc1ccc(OC)c(CN(C(C)=O)c2cc(F)ccc2Oc2ccccc2)c1` [DAA1106]: the Ki at TSPO [1] is 0.0048 ± 0.0004 µM. Further, in the assay with TSPO [2], the “ratio of specific signal, LAB” value is recorded as 1; the LAB/HAB was 4.7; the “ratio of specific signal, HAB” value was found to be 4.7; the “ratio of specific signal, MAB” value is given as 2.9. Further, at TSPO [3] (setting [13]), the Ki stood at 2.8 ± 0.3 nM. The Ki on TSPO [4] (setting [14]) is 0.0131 ± 0.0013 µM.
`CCN(Cc1ccccc1)C(=O)Cn1c(=O)n(C)c2cnc(-c3ccccc3)nc21` [Emapunil]: the Ki was 0.0105 ± 0.00099 µM on TSPO [1], 2.4 ± 0.67 nM at TSPO [3] (setting [13]), < 0.031 µM at TSPO [4] (setting [15]) and 0.0303 ± 0.0087 µM at TSPO [4] (setting [14]). In addition, in the assay with TSPO [2], the LAB/HAB worked out at 12.6.
Turning to `CC(=O)N(Cc1ccccc1OCCF)c1cnccc1Oc1ccccc1` [FEPPA], the autoradiography signal result with TSPO [5] was “lack of signal for the LAB”.
As for `CCN(CC)C(=O)C1CCCC2C1c1c(OC)cccc1N2CCF` (centres unmarked) [GE1], the Affinity shift in the assay with TSPO [6] stood at 11.8 fold. Further, the Ki is 0.0123 µM at TSPO [7] (6 HABs, racemate, read-out: Ki, mean of HABs); 0.00385 µM and 0.0138 µM and 0.00912 µM and 0.0127 µM and 0.0181 µM and 0.0165 µM on TSPO [7] (individual HAB subjects, read-out: Ki); 0.145 µM at TSPO [8] (6 LABs, racemate, read-out: Ki, mean of LABs); 0.0877 µM and 0.0919 µM and 0.138 µM and 0.115 µM and 0.235 µM and 0.145 µM on TSPO [8] (individual LAB subjects, read-out: Ki); 12.3 ± 2.1 nM on TSPO [3] (setting [13]); 0.145 ± 0.0221 µM on TSPO [4] (setting [14]). The half-maximal inhibitory concentration (IC50) is 0.00451 µM and 0.0161 µM and 0.0107 µM and 0.0149 µM and 0.0212 µM and 0.0193 µM on TSPO [7] (individual HAB subjects, 5 nM [3H]PK11195); 0.103 µM and 0.108 µM and 0.162 µM and 0.135 µM and 0.276 µM and 0.17 µM at TSPO [8] (individual LAB subjects, 5 nM [3H]PK11195). Further, in the assay on TSPO [2], the “ratio of specific signal, LAB” value was 1. In addition, the LAB/HAB in the assay with TSPO [2] came out at 11.8. For the same compound, the “ratio of specific signal, HAB” value in the assay on TSPO [2] is listed as 11.8. Moreover, the “ratio of specific signal, MAB” value in the assay with TSPO [2] is listed as 6.4.
Consider `COc1ccc(OC)c(CN(C(=O)CF)c2ccccc2Oc2ccccc2)c1` [PBR06], for which the “ratio of specific signal, LAB” value with TSPO [2] is 1. Moreover, the LAB/HAB in the assay on TSPO [2] turned out to be 17. Further, the “ratio of specific signal, HAB” value in the assay with TSPO [2] came out at 17.3. The “ratio of specific signal, MAB” value with TSPO [2] was determined as 9.2. Further, the Ki on TSPO [3] (setting [13]) stood at 8.6 ± 2 nM; on TSPO [3] (setting [16]) it was 13.4 nM; at TSPO [4] (setting [14]), 0.149 ± 0.0466 µM; on TSPO [4] (setting [17]) it was 0.176 µM.
With `CC(=O)N(Cc1ccccc1O[11CH3])c1cnccc1Oc1ccccc1` [PBR28], in the assay with TSPO [2], the “ratio of specific signal, LAB” value was found to be 1; the LAB/HAB was found to be 55; the “ratio of specific signal, HAB” value amounted to 55.3; the “ratio of specific signal, MAB” value stood at 28.2.
For the compound `COc1ccccc1CN(C(C)=O)c1cnccc1Oc1ccccc1` [PBR28], the Ki on TSPO [9] (HABs (27/41 subjects), read-out: Ki, single class of high affinity sites) was 0.00217 ± 0.00017 µM; on TSPO [9] (MABs (12/41 subjects), read-out: Ki, two-site model, high affinity site), 0.00223 ± 0.00031 µM; at TSPO [10] (LABs (2/41 subjects), read-out: Ki, single class of low affinity sites) it was 0.187 ± 0.0197 µM; on TSPO [10] (MABs (12/41 subjects), read-out: Ki, two-site model, low affinity site) it was 0.297 ± 0.0433 µM; on TSPO [11], 0.004 µM; on TSPO [12] it was 0.2 µM. The Ki is 3.4 ± 0.2 nM on TSPO [3] (setting [13]), 4 nM on TSPO [3] (setting [16]), 0.188 ± 0.007 µM at TSPO [4] (setting [14]) and 0.313 µM on TSPO [4] (setting [17]).
Turning to `CCN(CC)C(=O)Cc1c(-c2ccc(OCCCF)cc2)nc2ccc(Cl)cn12` [PBR111], the Ki at TSPO [1] was 0.0303 ± 0.0041 µM; on TSPO [11], 0.016 µM; on TSPO [12] it was 0.062 µM; on TSPO [3] (setting [13]), 15.6 ± 3.7 nM; at TSPO [4] (setting [15]) it was ~0.06 µM; on TSPO [4] (setting [14]), 0.0618 ± 0.0107 µM. The “ratio of specific signal, LAB” value in the assay on TSPO [2] stood at 1. In the assay with TSPO [2], the LAB/HAB came to 4. The “ratio of specific signal, HAB” value in the assay with TSPO [2] came out at 4.0. The “ratio of specific signal, MAB” value in the assay on TSPO [2] is listed as 2.5.
Take `CCC(C)N(C)C(=O)c1cc2ccccc2c(-c2ccccc2Cl)n1` (centres unmarked) [PK11195, 1-(2-Chlorophenyl)-N-methyl-N-(1-methylpropyl)-3-isoquinolinecarboxamide]: the “difference in binding affinity to Ala147TSPO and Thr147TSPO” value with TSPO [2] (assay as in Owen et al (2011) J Nucl Med 52, 24-32) is “No significant difference in binding affinity has been detected”.
